Measured values: patent US8741897B2, “Glucocorticoid mimetics, methods of making them, pharmaceutical compositions and uses thereof” (Boehringer Ingelheim Pharmaceuticals Inc., priority 2003, dated 2014)

System: glucocorticoid receptor function
Assay: one or more of the above assays (GR binding and glucocorticoid receptor cell assays: aromatase, IL-6, TAT, MMTV-Luc, IL-8, ICAM-Luc)
Assay type: cell-based
Details: assay not specified per compound
Method: B. Glucocorticoid Receptor Cell Assays
1. Induction of Aromatase in Fibroblasts (Cell Assay for Transactivation)
Dexamethasone, a synthetic ligand to the glucocorticoid receptor (GR), induces expression of aromatase in human foreskin fibroblast cells. The activity of aromatase is measured by the conversion of testosterone to estradiol in culture media.
On the day of the experiment, the media in the wells is replaced with fresh media. Cells are treated with test compounds to final concentrations of 10^−5 M to 10^−8 M, and testosterone to a final concentration of 300 ng/mL. Each well has a total volume of 100 μL. Samples are made in duplicates. Control wells include: (a) wells that receive testosterone only, and (b) wells that receive testosterone plus 2 μM of dexamethasone to provide maximum induction of aromatase. Plates are incubated at 37° C. overnight (15 to 18 hours), and supernatants are harvested at the end of incubation. […] The amount of estradiol is inversely proportional to the ELISA signals in each well. The extent of aromatase induction by test compounds is expressed as a relative percentage to dexamethasone. EC50 values of test compounds are derived by non-linear curve fitting.
2. Inhibition of IL-6 Production in Fibroblasts (Cell Assay for Transrepression)
Human foreskin fibroblast cells produce IL-6 in response to stimulation by proinflammatory cytokine IL-1.
On the next day, media in the wells is replaced with fresh media. Cells are treated with IL-1 (rhIL-1α, R&D Systems Cat. No. 200-LA) to a final concentration of 1 ng/mL, and with test compounds to final concentrations of 10^−5 M to 10^−8 M, in a total volume of 200 μL per well. Samples are done in duplicates. […] Positive control wells receive IL-1 only and represent maximum (or 100%) amount of IL-6 production. Plates are incubated at 37° C. overnight (15 to 18 hours), and supernatants are harvested at the end of incubation. IL-6 levels in the supernatants are determined by the ELISA kits for IL-6 (MedSystems Diagnostics GmbH, Vienna, Austria, Cat. No. BMS213TEN) according to manufacture's instructions. The extent of inhibition of IL-6 by test compounds is expressed in percentage relative to positive controls. IC50 values of test compounds are derived by non-linear curve fitting.
Evaluation of agonist or antagonist activity of compounds binding to the glucocorticoid receptor may be determined by any of the assays.
3. Modulation of Tyrosine Aminotransferase (TAT) Induction in Rat Hepatoma Cells
Testing of compounds for agonist or antagonist activity in induction of tyrosine aminotransferase (TAT) in rat hepatoma cells.
H4-II-E-C3 cells were incubated overnight in 96 well plates (20,000 cells/100 μL/well) in MEM medium containing 10% heat inactivated FBS and 1% nonessential amino acids. On the next day, cells were stimulated with the indicated concentrations of dexamethasone or test compound (dissolved in DMSO, final DMSO concentration 0.2%) for 18 hours. Control cells were treated with 0.2% DMSO. After 18 hours, the cells were lysed in a buffer containing 0.1% Triton X-100 and the TAT activity was measured in a photometric assay using tyrosine and alpha-ketoglutarate as substrates.
For measuring antagonist activity, the hepatoma cells were pre-stimulated by addition of dexamethasone (concentration ranges from 3×10^−9 M to 3×10^−8 M) shortly before the test compound was applied to the cells.
4. Modulation of MMTV-Luc Induction in HeLa Cells
Testing of compounds for agonist or antagonist activity in stimulation of MMTV-(mouse mammary tumor virus) promoter in HeLa cells.
Cells were cultured overnight in DMEM medium without phenol red, supplemented with 3% CCS (charcoal treated calf serum) and then transferred to 96 well plates (15,000 cells/100 μL/well).

Q: With `CC(C)(CC(O)(Cn1ccc2ncccc21)C(F)(F)F)c1cc(S(C)(=O)=O)cc2c1OCC2` (centres unmarked) [1,1,1-Trifluoro-4-(5-methanesulfonyl-2,3-dihydrobenzofuran-7-yl)-4-methyl-2-pyrrolo[3,2-b]pyridin-1-ylmethylpentan-2-ol] as the compound, how does the “activity as agonists of the glucocorticoid receptor function in one or more of the above assays” value (from here on “activity as agonists”) read?
A: potent agonists

Q: `Cc1ccc(F)cc1C(C)(C)CC(O)(Cc1cc2cnccc2[nH]1)C(C)(C)C` (centres unmarked) [5-(5-Fluoro-2-methylphenyl)-2,2,5-trimethyl-3-(1H-pyrrolo[3,2-c]pyridin-2-ylmethyl)hexan-3-ol] was tested. Which “activity as agonists” value did it give?
A: agonists

Q: `Cc1nccc2[nH]c(CC(O)(CC(C)(C)c3cc(-c4ccsc4)ccc3O)C(F)(F)F)cc12` (centres unmarked) [4-Thiophen-3-yl-2-[4,4,4-trifluoro-3-hydroxy-1,1-dimethyl-3-(4-methyl-1H-pyrrolo[3,2-c]pyridin-2-ylmethyl)butyl]phenol] was tested. Which “activity as agonists” value did it give?
A: potent agonists

Q: For `Cc1ccc(F)cc1C(C)(C)CC(O)(Cc1cc2cc(-c3ccccc3)nnc2[nH]1)C(F)(F)F` (centres unmarked), which “activity as agonists” value is on record?
A: potent agonists

Q: Which “activity as agonists” value does the source give for `CC(C)(CC(O)(Cc1cc2cc(-c3cccc(C#N)c3)ccc2[nH]1)C(F)(F)F)c1cc(F)cc2c1OCC2` (centres unmarked) [3-{2-[4-(5-Fluoro-2,3-dihydrobenzofuran-7-yl)-2-hydroxy-4-methyl-2-trifluoromethylpentyl]-1H-indol-5-yl}benzonitrile] here?
A: potent agonists

Q: For `COc1ccc(F)cc1C(C)(C)CC(O)(Cc1cc2nc(N3CCCC3)ncc2[nH]1)C(F)(F)F` (centres unmarked) [1,1,1-Trifluoro-4-(5-fluoro-2-methoxyphenyl)-4-methyl-2-(2-pyrrolidin-1-yl-5H-pyrrolo[3,2-d]pyrimidin-6-ylmethyl)pentan-2-ol], which “activity as agonists” value is on record?
A: potent agonists

Q: How did the “activity as agonists” value turn out when `Cc1ccc(F)cc1C(C)(C)CC(O)(Cc1cc2nc(CN3CCOCC3)ccc2[nH]1)C(F)(F)F` (centres unmarked) [1,1,1-Trifluoro-4-(5-fluoro-2-methylphenyl)-4-methyl-2-(5-morpholin-4-ylmethyl-1H-pyrrolo[3,2-b]pyridin-2-ylmethyl)pentan-2-ol] was run?
A: potent agonists

Q: Which “activity as agonists” value does the source give for `Cc1ccc(F)cc1C(C)(C)CC(O)(Cc1cc2nc(-c3ccccc3)ncc2[nH]1)C(F)(F)F` (centres unmarked) [1,1,1-Trifluoro-4-(5-fluoro-2-methylphenyl)-4-methyl-2-(2-phenyl-5H-pyrrolo[3,2-d]pyrimidin-6-ylmethyl)pentan-2-ol] here?
A: potent agonists

Q: `COc1ccc(-c2ccccc2C#N)cc1C(C)(C)CC(O)(Cc1cc2cc(N3CCOCC3)ncc2[nH]1)C(F)(F)F` (centres unmarked) [4′-Methoxy-3′-[4,4,4-trifluoro-3-hydroxy-1,1-dimethyl-3-(5-morpholin-4-yl-1 H-pyrrolo[2,3-c]pyridin-2-ylmethyl)butyl]biphenyl-2-carbonitrile] was tested. Which “activity as agonists” value did it give?
A: potent agonists

Q: `CC(C)(CC(O)(Cc1cc2cc(-c3cccnc3)ccc2[nH]1)C(F)(F)F)c1cc(F)cc2c1OCC2` (centres unmarked) [1,1,1-Trifluoro-4-(5-fluoro-2,3-dihydrobenzofuran-7-yl)-4-methyl-2-(5-pyridin-3-yl-1H-indol-2-ylmethyl)pentan-2-ol] was tested. Which “activity as agonists” value did it give?
A: potent agonists

Q: `COc1ccc(F)cc1C(C)(C)CC(O)(Cc1cc2cnccc2[nH]1)C(C)C` (centres unmarked) [5-(5-Fluoro-2-methoxyphenyl)-2,5-dimethyl-3-(1H-pyrrolo[3,2-c]pyridin-2-ylmethyl)hexan-3-ol] was tested. Which “activity as agonists” value did it give?
A: agonists

Q: `COc1ccc(F)cc1C(C)(C)CC(O)(Cc1cc2cnccc2[nH]1)C(C)(C)C` (centres unmarked) [5-(5-Fluoro-2-methoxyphenyl)-2,2,5-trimethyl-3-(1H-pyrrolo[3,2-c]pyridin-2-ylmethyl)hexan-3-ol] was tested. Which “activity as agonists” value did it give?
A: agonists

Q: With `CCN(CC)c1cc2cc(CC(O)(CC(C)(C)c3cc(F)ccc3C)C(F)(F)F)[nH]c2cn1` (centres unmarked) [2-(5-Diethylamino-1H-pyrrolo[2,3-c]pyridin-2-ylmethyl)-1,1,1-trifluoro-4-(5-fluoro-2-methylphenyl)-4-methylpentan-2-ol] as the compound, how does the “activity as agonists” value read?
A: potent agonists

Q: Which “activity as agonists” value does the source give for `COc1ccc(-c2cncnc2)cc1C(C)(C)CC(O)(Cc1cc2cnccc2[nH]1)C(F)(F)F` (centres unmarked) [1,1,1-Trifluoro-4-(2-methoxy-5-pyrimidin-5-ylphenyl)-4-methyl-2-(1H-pyrrolo[3,2-c]pyridin-2-ylmethyl)pentan-2-ol] here?
A: potent agonists

Q: For `Cc1ccc(F)cc1C(C)(C)CC(O)(Cc1cc2cc(N3CCCC3)ncc2[nH]1)C(F)(F)F` (centres unmarked) [1,1,1-Trifluoro-4-(5-fluoro-2-methylphenyl)-4-methyl-2-(5-pyrrolidin-1-yl-1H-pyrrolo[2,3-c]pyridin-2-ylmethyl)pentan-2-ol], which “activity as agonists” value is on record?
A: potent agonists

Q: With `Cc1ccc(F)cc1C(C)(C)CC(O)(Cc1cc2cnccc2[nH]1)C(C)C` (centres unmarked) [5-(5-Fluoro-2-methylphenyl)-2,5-dimethyl-3-(1H-pyrrolo[3,2-c]pyridin-2-ylmethyl)hexan-3-ol] as the compound, how does the “activity as agonists” value read?
A: agonists

Q: For `CC(C)(CC(O)(Cc1cc2cc(C#N)ncc2[nH]1)C(F)(F)F)c1cc(Cl)cc2c1OCC2` (centres unmarked) [2-[4-(5-Chloro-2,3-dihydrobenzofuran-7-yl)-2-hydroxy-4-methyl-2-trifluoromethylpentyl]-1H-pyrrolo[2,3-c]pyridine-5-carbonitrile], which “activity as agonists” value is on record?
A: potent agonists

Q: For `CC(C)(CC(O)(Cc1cc2nc(N3CCCC3)ncc2[nH]1)C(F)(F)F)c1cc(F)ccc1O` (centres unmarked) [4-Fluoro-2-[4,4,4-trifluoro-3-hydroxy-1,1-dimethyl-3-(2-pyrrolidin-1-yl-5H-pyrrolo[3,2-d]pyrimidin-6-ylmethyl)butyl]phenol], which “activity as agonists” value is on record?
A: potent agonists

Q: With `Cc1c(CC(O)(CC(C)(C)c2cc(Cl)cc3c2OCC3)C(C)C)[nH]c2cnccc12` (centres unmarked) [5-(5-Chloro-2,3-dihydrobenzofuran-7-yl)-2,5-dimethyl-3-(3-methyl-1H-pyrrolo[2,3-c]pyridin-2-ylmethyl)hexan-3-ol] as the compound, how does the “activity as agonists” value read?
A: agonists

Q: With `COc1ccc(-c2ccccc2Cl)cc1C(C)(C)CC(O)(Cc1cc2cc(N3CCCCC3)ncc2[nH]1)C(F)(F)F` (centres unmarked) [4-(2′-Chloro-4-methoxybiphenyl-3-yl)-1,1,1-trifluoro-4-methyl-2-(5-piperidin-1-yl-1H-pyrrolo[2,3-c]pyridin-2-ylmethyl)pentan-2-ol] as the compound, how does the “activity as agonists” value read?
A: potent agonists

Q: Which “activity as agonists” value does the source give for `Cc1nccc2[nH]c(CC(O)(CC(C)(C)c3cc(-c4ccccc4)ccc3O)C(F)(F)F)cc12` (centres unmarked) [3-[4,4,4-Trifluoro-3-hydroxy-1,1-dimethyl-3-(4-methyl-1H-pyrrolo[3,2-c]pyridin-2-ylmethyl)butyl]biphenyl-4-ol] here?
A: potent agonists

Q: Which “activity as agonists” value does the source give for `COc1ccc(-c2cccnc2)cc1C(C)(C)CC(O)(Cc1cc2c(C)cncc2[nH]1)C(F)(F)F` (centres unmarked) [1,1,1-Trifluoro-4-(2-methoxy-5-pyridin-3-ylphenyl)-4-methyl-2-(4-methyl-1H-pyrrolo[2,3-c]pyridin-2-ylmethyl)pentan-2-ol] here?
A: potent agonists

Q: For `COc1ccc(-c2ccccc2Cl)cc1C(C)(C)CC(O)(Cc1cc2cc(N3CCOCC3)ncc2[nH]1)C(F)(F)F` (centres unmarked) [4-(2′-Chloro-4-methoxybiphenyl-3-yl)-1,1,1-trifluoro-4-methyl-2-(5-morpholin-4-yl-1H-pyrrolo[2,3-c]pyridin-2-ylmethyl)pentan-2-ol], which “activity as agonists” value is on record?
A: potent agonists
